We go through 2 compounds from PubChem BioAssay AID1745844 (Carcinogenic Potency Database (CPDB), 2022).

This series relates to rodent lifetime carcinogenesis bioassay, tumor incidence TD50. The experiment in a line: chronic cancer bioassays in animals – CPDB, compiled studies (AID 1745844).

Molecules are shown by their SMILES. Activity calls are given as the source filed them. The rule behind the calls is not given here.

As for `CC(COc1ccc(C(C)(C)C)cc1)OS(=O)OCCCl` (stereo not given), the TD50 – broadly, the 50% point of the dose-response relation for the toxic effect studied – runs as follows: (mouse, strain B6AKF1, females, oral dosing, site: any site (literature study), lesion: several types, types named in the paper, dosed 80 weeks, study length 80 weeks) 391 mg/kg/day; (mouse, strain B6AKF1, females, oral dosing, site: lung, lesion: adenoma, dosed 80 weeks, study length 80 weeks) 432 mg/kg/day; (mouse, strain B6AKF1, males, oral dosing, site: liver, lesion: hepatoma, dosed 77 weeks, study length 77 weeks) 15900 mg/kg/day; (mouse, strain B6C3F1, females, oral dosing, site: any site (literature study), lesion: several types, types named in the paper, dosed 77 weeks, study length 77 weeks) 92.7 mg/kg/day; (mouse, strain B6C3F1, females, oral dosing, site: liver, lesion: hepatoma, dosed 77 weeks, study length 77 weeks) 973 mg/kg/day; (mouse, strain B6C3F1, females, oral dosing, site: lung, lesion: adenoma, dosed 77 weeks, study length 77 weeks) 973 mg/kg/day. The TD50 by setting is: (mouse, strain B6C3F1, males, oral dosing, site: any site (literature study), lesion: several types, types named in the paper, dosed 80 weeks, study length 80 weeks) 103 mg/kg/day; (mouse, strain B6C3F1, males, oral dosing, site: liver, lesion: hepatoma, dosed 80 weeks, study length 80 weeks) 158 mg/kg/day; (mouse, strain B6C3F1, males, oral dosing, site: liver, lesion: several types, types named in the paper, dosed 80 weeks, study length 80 weeks) 126 mg/kg/day; (rat, strain CFN, both sexes, in feed, site: bile duct, lesion: adenoma, dosed 104 weeks, study length 104 weeks) 1010 mg/kg/day; (rat, strain CFN, both sexes, in feed, site: liver, lesion: hyperplastic nodule, dosed 104 weeks, study length 104 weeks) 61.8 mg/kg/day; (rat, strain Food and Drug Research Laboratories stock rats, both sexes, in feed, site: liver, lesion: several types, types named in the paper, dosed 93 weeks, study length 104 weeks) 430 mg/kg/day. Moreover, the TD50 by setting is: (rat, strain Osborne-Mendel, females, in feed, site: any site (literature study), lesion: benign tumor, dosed 104 weeks, study length 104 weeks) 31.5 mg/kg/day (inactive); (rat, strain Osborne-Mendel, females, in feed, site: liver, lesion: hemangioma, dosed 117 weeks, study length 117 weeks) 256 mg/kg/day (inactive); (rat, strain Osborne-Mendel, males, in feed, site: any site (literature study), lesion: benign tumor, dosed 104 weeks, study length 104 weeks) 64.7 mg/kg/day (inactive); (rat, strain Osborne-Mendel, males, in feed, site: any site (literature study), lesion: malignant tumor, dosed 117 weeks, study length 117 weeks) 101 mg/kg/day (inactive); (rat, strain Osborne-Mendel, males, in feed, site: any site (literature study), lesion: several types, types named in the paper, dosed 117 weeks, study length 117 weeks) 198 mg/kg/day (inactive); (rat, strain Sprague-Dawley, both sexes, in feed, site: liver, lesion: hyperplastic nodule, dosed 104 weeks, study length 104 weeks) 760 mg/kg/day. Moreover, the TD50 reads like this: (rat, strain Wistar/FDRL, both sexes, in feed, site: bile duct, lesion: adenoma, dosed 104 weeks, study length 104 weeks) 397 mg/kg/day; (rat, strain Wistar/FDRL, both sexes, in feed, site: liver, lesion: hepatocellular carcinoma, dosed 104 weeks, study length 104 weeks) 1000 mg/kg/day; (rat, strain Wistar/FDRL, both sexes, in feed, site: liver, lesion: hyperplastic nodule, dosed 104 weeks, study length 104 weeks) 79.9 mg/kg/day. Also, the carcinogen call reads like this: (rat, strain Osborne-Mendel, females, in feed, site: any site (literature study), lesion: malignant tumor, dosed 104 weeks, study length 104 weeks) “negative (inactive)”; (rat, strain Osborne-Mendel, females, in feed, site: any site (literature study), lesion: several types, types named in the paper, dosed 117 weeks, study length 117 weeks) “negative (inactive)”; (rat, strain Osborne-Mendel, females, in feed, site: liver, lesion: one or several types, types not named, dosed 104 weeks, study length 104 weeks) “negative (inactive)”; (rat, strain Osborne-Mendel, males, in feed, site: any site (literature study), lesion: malignant tumor, dosed 104 weeks, study length 104 weeks) “negative (inactive)”; (rat, strain Osborne-Mendel, males, in feed, site: liver, lesion: one or several types, types not named, dosed 104 weeks, study length 104 weeks) “negative (inactive)”; (rat, strain Osborne-Mendel, males, in feed, site: liver, lesion: one or several types, types not named, dosed 117 weeks, study length 117 weeks) “negative (inactive)”.
With `CCn1cc(C(=O)O)c(=O)c2cc3c(cc21)OCO3`, the TD50 by setting is: (mouse, strain ICR, females, in feed, site: liver, lesion: hepatocellular adenoma, dosed 78 weeks, study length 78 weeks) 572 mg/kg/day; (mouse, strain ICR, females, in feed, site: lung, lesion: adenoma, dosed 78 weeks, study length 78 weeks) 55.1 mg/kg/day; (rat, strain Wistar, females, in feed, site: any site (literature study), lesion: benign tumor, dosed 104 weeks, study length 104 weeks) 589 mg/kg/day; (rat, strain Wistar, females, in feed, site: any site (literature study), lesion: malignant tumor, dosed 104 weeks, study length 104 weeks) 1040 mg/kg/day; (rat, strain Wistar, females, in feed, site: any site (literature study), lesion: several types, types named in the paper, dosed 104 weeks, study length 104 weeks) 68.5 mg/kg/day; (rat, strain Wistar, females, in feed, site: liver, lesion: hepatocellular carcinoma, dosed 104 weeks, study length 104 weeks) 2440 mg/kg/day. The TD50 is 1790 mg/kg/day (rat, strain Wistar, males, in feed, site: any site (literature study), lesion: malignant tumor, dosed 104 weeks, study length 104 weeks) and 167 mg/kg/day (rat, strain Wistar, males, in feed, site: testis, lesion: Leydig-cell adenoma, dosed 104 weeks, study length 104 weeks).
